Structures can show the parent of a compound that is named as a salt. Where two headings read alike, the source gives them in different places.

The source of these data is patent US20170368182A1, “Pharmaceutical Semi-Solid Gels with Entrapped Calcium Phosphate Nanoparticles” (Belmont University, priority 2014, published 2017).

The conditions of series [1]: first seven years of use / commercial production of ophthalmic product, cited from earlier work.
The conditions of series [2]: low viscosity ophthalmic solutions; cited from earlier work.
Series [3] is described as follows: Osmolality contribution of gel components. The class given is physicochemical. Conditions: 0.68% timolol maleate; 0.5% carbomer 980 calculated from 0.3% carbomer 934. As for the experimental part: The exact osmolality 0.5% carbomer 980 gel was not known, but it was calculated using the osmolality of 0.3% carbomer 934.^19 The 0.68% timolol maleate contributes 31.4 mOsm and the carbomer contributes approximately 42 mOsm. To make the gel isotonic, 4.1 g of 5% dextrose would need to be added to obtain an isotonic gel with a tonicity of 300 mOsm. However, the results of this experiment will be compared to the results of a similar experiment using carboxymethylcellulose, CMC. […] The gel was thoroughly mixed by hand and then with a stir bar and magnetic stirrer to ensure uniformity.
Also, to make the concentrated 9% of the polymer to create enough for 3 gels, 9 g of the polymer was added to a 250 ml beaker. The polymer was hydrated with distilled water to 180 ml which took 1 hour to dissolve through the use of magnetic stirrer and stirring by hand. Next, 0.68 g of timolol maleate salt was added to the beaker with 60 ml of Na CMC. The contents were then q.s to a final concentration of 100 ml. […] Timolol maleate has osmolality of 31 mOsm and Na CMC has a theoretical osmolality of 470 mOsm which mitigated the need to add dextrose to reach osmolality.^18 The pH was assessed by using an electrode and the pH was between 7-8 which prevented the need to add sodium hydroxide to get to the physiological pH. […]

For series [4] the following is noted: Example 2; Na CMC value theoretical; cited from earlier work.

For `CC(C)(C)NC[C@H](O)COc1nsnc1N1CCOCC1` [Timolol maleate], the deaths entry is listed as “Thirty two” in series [1] and around 37 in series [1] (listed as timolol maleate). The “share of Timolol that reaches intraocular tissues” value in series [2] was “less than 5%”. Moreover, in series [3], the osmolality contribution was 31.4 mOsm. In addition, in series [4], the osmolality was 31 mOsm.
